Laboratory results: ChEMBL document CHEMBL1127955, “Enantioselective synthesis of the optical isomers of broad-spectrum orally active antifungal azoles, Sch 42538 and Sch 45012” (1994)
Values joined by “and” are separate entries in the source; they are usually repeats but may differ in a detail not shown here. Identical values can stand only once.

Experiments:
Type in all cases: functional
[1] = tested on: Mus musculus; assay: Compound was tested for the colony forming units of Aspergillus flavus in mice at a dose of 100 mg/kg expressed as geometric mean
[2] = tested on: Mus musculus; assay: Compound was tested for the colony forming units of Aspergillus flavus in mice at a dose of 66 mg/kg expressed as geometric mean
[3] = tested on: Mus musculus; assay: Compound was tested for the colony forming units of C. Albicans in mice at a dose of 10 mg/kg expressed as geometric mean
[4] = tested on: Mus musculus; assay: Compound was tested for the colony forming units of C. Albicans in mice at a dose of 25 mg/kg expressed as geometric mean
[5] = tested on: Mus musculus; assay: Compound was tested for the colony forming units of C. Albicans in mice at a dose of 50 mg/kg expressed as geometric mean
[6] = species on record: Mus musculus; assay: Compound was tested for the oral activity in CF-1 mice infected with C. Albicans in eagles essential medium at pH 7.0 duration of 48 h; set-up: unit not given here
[7] = species on record: Mus musculus; assay: Compound was tested for the oral activity in CF-1 mice infected with Aspergillus flavus by sabouraud dextrose broth of pH 5.7 duration of 72 h; set-up: unit not given here
[8] = tested on: Mus musculus; assay: Compound was tested for the oral activity in CF-1 mice infected with Aspergillus flavus at a dose of 100 mg/kg of 4 days post infection; details: for Survival: 100 mg/kg; for survival at 100 mg/kg: Mus musculus, po, 96 h
[9] = tested on: Mus musculus; assay: Compound was tested for the oral activity in CF-1 mice infected with Aspergillus flavus at a dose of 66 mg/kg of 4 days post infection; details: for Survival: 66 mg/kg; for survival at 66 mg/kg: Mus musculus, po, 96 h
[10] = tested on: Mus musculus; assay: Compound was tested for the oral activity in CF-1 mice infected with C. Albicans at a dose of 10 mg/kg of 4 days post infection
[11] = tested on: Mus musculus; assay: Compound was tested for the oral activity in CF-1 mice infected with C. Albicans at a dose of 25 mg/kg of 4 days post infection; details: for Survival: 25 mg/kg; for survival at 25 mg/kg: Mus musculus, po, 96 h
[12] = tested on: Mus musculus; assay: Compound was tested for the oral activity in CF-1 mice infected with C. Albicans at a dose of 50 mg/kg of 4 days post infection; details: for Survival: 50 mg/kg; for survival at 50 mg/kg: Mus musculus, po, 96 h

SMILES | CFU [1] | CFU [2] | CFU ([3]; 10 mg/kg) | CFU ([4]; 25 mg/kg) | CFU ([5]; 50 mg/kg) | MIC [6] | MIC [7] | Survival [8] [%] | Survival [9] [%] | Survival ([10]; 10 mg/kg) | Survival [11] [%] | Survival [12] | survival at 100 mg/kg [8] [%] | CFU [4] | CFU [5] | survival at 66 mg/kg [9] [%] | survival at 25 mg/kg [11] [%] | survival at 50 mg/kg [12] [%] | CFU [3] | survival at 10 mg/kg ([10]; Mus musculus, po, 96 h) [%]
CCC(C)n1ncn(-c2ccc(N3CCN(c4ccc(OC[C@@H]5COC(Cn6cncn6)(c6ccc(F)cc6F)C5)cc4)CC3)cc2)c1=O (single isomer, unassigned) | 1.95 | 2.25 | 7.42 and 5.92 | 5.14 | 4.99 | 0.0039 | 0.0625 | 100 | 50 | 40% and 90% | 100 | 100% |  |  |  |  |  |  |  | 
CCC(C)n1ncn(-c2ccc(N3CCN(c4ccc(OC[C@H]5CO[C@](Cn6cncn6)(c6ccc(F)cc6F)O5)cc4)CC3)cc2)c1=O (single isomer, unassigned) [SAPERCONAZOLE] |  |  |  |  | 8.2 and 9 | 0.0039 | 0.0313 |  |  |  |  | 20% and 0% | 0 |  |  |  |  |  |  | 
CC[C@H](C)n1ncn(-c2ccc(N3CCN(c4ccc(OC[C@@H]5COC(Cn6cncn6)(c6ccc(F)cc6F)C5)cc4)CC3)cc2)c1=O (single isomer, unassigned) [SCH-49999] |  |  |  |  |  | 0.0625 | >8 |  |  |  |  |  | 20 | 9 | 7.84 | 0 | 0 | 20 |  | 
CC[C@@H](C)n1ncn(-c2ccc(N3CCN(c4ccc(OC[C@@H]5COC(Cn6cncn6)(c6ccc(F)cc6F)C5)cc4)CC3)cc2)c1=O (single isomer, unassigned) |  |  |  | 9 | 9 | 0.0313 | >8 | 10 | 0 |  | 0 | 0% |  |  |  |  |  |  |  | 
CCC(C)n1ncn(-c2ccc(N3CCN(c4ccc(OC[C@@H]5CO[C@@](Cn6cncn6)(c6ccc(Cl)cc6Cl)O5)cc4)CC3)cc2)c1=O (stereo partly drawn) [ITRACONAZOLE] |  |  |  |  |  | 0.0078 | 0.125 |  |  |  |  |  | 20 | 9 | 6.68 | 0 | 0 | 60 | 8.87 | 10
